Experiments:
[1] = system: Aedes Aegypti female mosquitoes; experiment: Knockdown efficacy against mosquitoes in glass chamber; assay type: in vivo; conditions: for KD50 / KD80 / Dead (%): Barex strips coated with 5 mg of each active; for KD50 / KD80: 20 min test period; for Dead (%): 24 hours post treatment; for knockdown / biological activity in glass chamber (in words): fresh samples, 5 mg, 20 minute test period; for pest or weed control at 5 mg/strip: Aedes aegypti, 24 h, read-out: Dead (%)
Procedure: Markings were made to identify the side to be treated with the active. Markings were also made to leave one inch spacing on either ends 12 and 14 of the strip 10 to enable handling. Intermediate solutions of the active in organic solvents were prepared. A micropipettor, calibrated to transfer a known amount of intermediate solution on to the strip, was used to dose the strip with the active. The solution, after transferring onto the strip 10, was made to wet a 2 inch by 8 inch area 16 between ends 12 and 14, and allowed to sit on the bench top until most of the solvent evaporated and the strips appeared dry (which took 15 minutes to 30 minutes). Strips 10 were then either folded twice and held together with a metal clip and kept in a glass jar or were wrapped in aluminum foil and kept in a sealed plastic bag. These were then stored in the refrigerator at −10° C. until further use.
A Glass chamber (0.75 m×0.75 m×0.75 m) was used for the test and was maintained at 80° F. and 50% relative humidity. Three treated strips were placed on a card board tray covered with an aluminum foil and then transferred to the glass chamber. The strips were exposed in the chamber for three minutes to allow insecticide vapors build-up in the enclosed air. Strips were then quickly removed, folded and stored in the refrigerator. Ten laboratory-cultured adult Aedes Aegypti female mosquitoes were released into the chamber. […] After 20 minutes of exposure, all mosquitoes were collected and placed in a container with sucrose pad. […] KD50, KD80, and % Dead values of the tests were obtained for analysis. KD50 and KD80 are defined as the time taken for 50% and 80% of the mosquitoes to get knocked down and % Dead is simply the percentage of mosquitoes that are dead after 24 hour period. The glass chamber was then dismantled and thoroughly wiped with soap solution to remove contamination of the active. The walls were then wiped with a paper towel and allowed to dry before assembling again for the next run.

[2] = Release of active in wind tunnel (residual analysis); assay type: physicochemical; conditions: for % Evap Barex: 5 mg transfluthrin coated on Barex (103 sq. cm.) from the named solvent; for % Evap Filter Paper: 5 mg transfluthrin coated on filter paper (103 sq. cm.) from the named solvent
From the text: A computer controlled wind tunnel was custom designed using a fan 18 for drawing fresh air designated by arrows 20 past baffles 22 into a chamber 28 containing multiple strips 10 to determine the release of actives from these strips under controlled environmental conditions (see FIG. 2).
Preset wind velocities can be entered into the computer and maintained without operator's involvement during the testing period. Honey comb flow straighteners 24 and 26 were placed on either ends of the wind tunnel to obtain uniform velocity profiles. Strips 10 were placed on the floor of a 12 inch by 12 inch cross sectioned body in triplicates in a staggered fashion so as to equalize any possible errors that arise from spatial dependency of air velocity. All studies were carried out at a constant air flow rate of 2 meters per second as determined by a velocity probe 30 in chamber 28 and at an ambient temperature of 70° F. for 72 hours. The exhaust designated by arrows 32 of the wind tunnel was directly connected to the building ventilation duct to prevent Transfluthrin contamination of the lab. Strips 10 were removed at predetermined intervals and stored in the refrigerator for subsequent analytical or biological testing.
(§1) A validated analytical method was used to determine the residual level of active on the strips using gas chromatography. All samples were analyzed using this method to determine evaporation losses and release rates in the wind tunnel.

Culex quinquefasciatus = experiment: Field trials in living rooms, human bare-leg catch; assay type: in vivo; conditions: Malaysia field study
Procedure: Field trials against Culex quinquefasciatus were conducted in living rooms of residential houses in a squatter area at Ujung Batu, Butterworth on the Northwest peninsula of Malaysia on plastic strips coated with transfluthrin. […] A total of four configurations were tested.
Config. A 2 sheets hung together on each of four walls
Config. B 1 sheet hung on each four walls
Config. C 1 sheet hung on each two opposite walls
Config. D 1 sheet hung on a wall
The average volume of the rooms where the test is conducted is 75.5 cubic meters […]. The human baits were seated 1-2 meters away from all the treated sheets and the efficacy was evaluated using the human bare-leg catch technique during the first 0-2 hours, 24 hours, 96 hours, and 168 hours the placing of the test sheets in the rooms.
These tests were conducted under a rigorous test environment. The predominant species collected during the trials was Culex quinquefasciatus which are most tolerant to pyrethroid based household insecticide products among the common mosquitoes found in the living premises in tropical and subtropical regions globally. Due to the local weather changes, the squatter area chosen for the trials indicated lower indoor mosquito density during the pretreatment and treatment trials.

[3] = Residual analysis and release rate of large chamber samples; assay type: physicochemical
Procedure: as §1
The 8 hour aged strips were also sent to analytical for residual analysis. Results, as summarized in Table 18, indicate that the average release of transfluthrin during the 8 hour period is ˜0.2 mg/hr.
Lab studies were also conducted on a portable electric device where a corrugated disc was impregnated with 280 mg of transfluthrin. The disc was placed in a device which has a fan that runs on a battery. Air flows through the holes of the disc releasing the transfluthrin into the environment. Lab studies were conducted on this unit to determine its efficacy. […] Weight loss experiments were also conducted to determine the release rates from this unit.

SMILES	KD50 [1]	KD80 [1]	knockdown / biological activity in glass chamber (in words) [1]	% Evap Barex [2]	% Evap Filter Paper [2]	pest or weed control at 5 mg/strip [1]	other results
C=CCC1=C(C)C(OC(=O)[C@@H]2[C@@H](C=C(C)C)C2(C)C)CC1=O (some centres unmarked) [Bioallethrin]	>20 min	>20 min	either minimal activity or no activity at all				Dead (%) [1]: 0%
CCOC(C)=O [Ethyl Acetate]				57.6%	61.1%		
CC1(C)[C@H](C(=O)O[C@H](C#N)c2cccc(Oc3ccccc3)c2)[C@@H]1C=C(Br)Br [Deltamethrin]	>20 min	>20 min	either minimal activity or no activity at all			20%	
CC1(C)C(C=C(Cl)Cl)C1C(=O)OC(C#N)c1cccc(Oc2ccccc2)c1 (centres unmarked) [Cypermethrin]	>20 min	>20 min	either minimal activity or no activity at all			0%	
CC(C)=O [Acetone]				58.3%	57.7%		
CC(C)=CC1C(C(=O)OCc2coc(Cc3ccccc3)c2)C1(C)C (centres unmarked) [Resmethrin]	>20 min	>20 min	either minimal activity or no activity at all			10%	
CNC(=O)Oc1ccccc1OC(C)C [Propoxur]			either minimal activity or no activity at all				
CCN(CC)C(=O)c1cccc(C)c1 [DEET]	>20 min	>20 min	either minimal activity or no activity at all				Dead (%) [1]: 0%
CC(C)=CC1C(C(=O)OCc2cccc(Oc3ccccc3)c2)C1(C)C (centres unmarked) [Sumithrin]	>20 min	>20 min	either minimal activity or no activity at all			0%	
CCC(C)=O [MEK]				67.5%	62.4%		
CO [Methanol]				58.3%	47.0%		
CCO [Ethanol]				70.3%	45.0%		
CCOP(=S)(OCC)Oc1nc(Cl)c(Cl)cc1Cl [Dursban]	>20 min	>20 min	either minimal activity or no activity at all			0%	
CC1(C)C(C=C(Cl)Cl)C1C(=O)OCc1cccc(Oc2ccccc2)c1 (centres unmarked) [Permanone]	>20 min	>20 min	either minimal activity or no activity at all				Dead (%) [1]: 0%
Cc1ccccc1 [Toluene]				60.9%	58.4%		
C#CCC1=C(C)C(OC(=O)C2C(C=C(C)C)C2(C)C)CC1=O (centres unmarked) [ETOC]	>20 min	>20 min	either minimal activity or no activity at all				Dead (%) [1]: 0%
Cc1c(F)c(F)c(COC(=O)[C@@H]2[C@H](/C=C(\Cl)C(F)(F)F)C2(C)C)c(F)c1F (racemic) [Tefluthrin]	13.00 min	16.67 min	relatively lower activity			100%	KD50 ([1]; listed as tefluthrin): 13 min
CC1(C)[C@H](C=C(Cl)Cl)[C@H]1C(=O)OCc1c(F)c(F)cc(F)c1F [Transfluthrin, (IR-trans)-(2,3,5,6-tetrafluorophenyl)methyl 3-(2,2-dichoroethenyl)-2,2-dimethyl cyclopropane carboxylate]		6.83 min	highest activity			100%	transfluthrin release rate sufficient to achieve practical control (Culex quinquefasciatus): 0.18 mg/h; Transfluthrin loss in 8 hr ([3]; Barex strip on fan at 3.5 m/s): 1.5 mg; Release rate of Transfluthrin ([3]; average during the 8 hour period, Barex strip on fan, listed as transfluthrin): ~0.2 mg/h
CC(=O)OCC(C)C [Isobutyl Acetate]				70.9%	63.8%		
C1CCOC1 [THF]				59.6%	56.4%		
CC(C)O [IPA, isopropyl alcohol]				50.3%	49.0%		
CCC(C)O (centres unmarked) [2-Butanol]				60.3%	67.1%		
C#CC(OC(=O)C1C(C=C(C)C)C1(C)C)/C(C)=C/CC (centres unmarked) [Vapothrin]	>20 min	>20 min	either minimal activity or no activity at all				Dead (%) [1]: 0%
CCCCCCC [Heptane]				86.8%	78.5%		
COC(C)=O [Methyl Acetate]				57.6%	55.7%		
CC(C)C(C(=O)OC(C#N)c1cccc(Oc2ccccc2)c1)c1ccc(Cl)cc1 (centres unmarked) [Fenvalerate]	>20 min	>20 min	either minimal activity or no activity at all			0%	
